Where two headings read alike, the source gives them in different places.
Experiments:
A2780 cells = experiment: In-vitro cell proliferation assay (SRB), A2780 cells; format: cell-based; conditions: A2780 cells, 72 hours, SRB, read-out: A2780 IC50;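 also: viable cell number read as SRB absorbance, background from media-only wells subtracted, IC50 interpolated from percent inhibition at two bracketing compound concentrations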
NAMPT = NAMPT (Homo sapiens (Human), UniProt P43490); experiment: NAMPT biochemical inhibition assay (NMN quantified by mass spectrometry); conditions: NAMPT biochemical inhibition; read-out: Biochem IC50
Sequence of NAMPT (P43490 whole entry): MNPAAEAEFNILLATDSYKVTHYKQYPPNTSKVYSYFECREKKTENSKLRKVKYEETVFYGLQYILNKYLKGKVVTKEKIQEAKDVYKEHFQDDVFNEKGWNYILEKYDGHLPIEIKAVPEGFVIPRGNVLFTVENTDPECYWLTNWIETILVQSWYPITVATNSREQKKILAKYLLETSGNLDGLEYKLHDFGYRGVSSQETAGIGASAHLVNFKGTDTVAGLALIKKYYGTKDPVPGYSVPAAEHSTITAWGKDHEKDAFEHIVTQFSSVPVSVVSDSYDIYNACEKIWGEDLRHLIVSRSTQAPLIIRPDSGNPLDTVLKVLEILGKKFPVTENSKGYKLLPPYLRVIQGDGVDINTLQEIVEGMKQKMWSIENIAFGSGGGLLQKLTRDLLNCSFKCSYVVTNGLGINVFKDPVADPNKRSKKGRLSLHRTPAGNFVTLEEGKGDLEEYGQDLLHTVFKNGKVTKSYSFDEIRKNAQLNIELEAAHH

Row | SMILES | IC50 (A2780 cells) | IC50 (NAMPT) | IC50 (A2780 cells; Homo sapiens, A2780, 72 h)
1 | CCN(CC)C(=O)c1ccc(F)c(S(=O)(=O)c2ccc(NC(=O)NCc3cccnc3)cc2)c1 [N,N-diethyl-4-fluoro-3-[(4-{[(pyridin-3-ylmethyl)carbamoyl]amino[benzene)sulfonyl]benzamide] | 88.5 nM | 2.4 nM | –
2 | CN(C)C(=O)C1CCN(S(=O)(=O)c2ccc(NC(=O)NCc3cccnc3)cc2)CC1 [N,N-dimethyl-1-[(4-{[(pyridin-3-ylmethyl)carbamoyl]amino}benzene)sulfonyl]piperidine-4-carboxamide] | – | 9 nM | 164 nM
3 | CN(C)C(=O)c1ccccc1NS(=O)(=O)c1ccc(NC(=O)NCc2cccnc2)cc1 [N,N-dimethyl-2-[(4-{[(pyridin-3-ylmethyl)carbamoyl]amino}benzene)sulfonamido]benzamide] | – | 16 nM | 55 nM
4 | CN(C)C(=O)c1cccc(S(=O)(=O)c2ccc(NC(=O)NCc3cccnc3)cc2)c1 [N,N-dimethyl-3-[(4-{[(pyridin-3-ylmethyl)carbamoyl]amino[benzene)sulfonyl]benzamide] | 100 to 1000 nM | 7.4 nM | –
5 | CN(C)C(=O)c1ccc(S(=O)(=O)c2ccc(NC(=O)NCc3cccnc3)cc2)cc1 [N,N-dimethyl-4-[(4-{[(pyridin-3-ylmethyl)carbamoyl]amino}benzene)sulfonyl]benzamide] | – | 5 nM | 53 nM
6 | O=C(NCc1ccc2ncsc2c1)c1ccc(S(=O)(=O)c2cccc(Cl)c2)cc1 [N-(1,3-benzothiazol-6-ylmethyl)-4-[(3-chlorobenzene)sulfonyl]benzamide] | – | 11400 nM | 9.71 nM
7 | O=C(NCc1cccnc1)Nc1ccc(S(=O)(=O)c2cccc(C(=O)NCCO)c2)cc1 [N-(2-hydroxyethyl)-3-[(4-{[(pyridin-3-ylmethyl)carbamoyl]amino[benzene)sulfonyl]benzamide] | 100 to 1000 nM | 7.8 nM | –
8 | CC(C)CNC(=O)c1cccc(S(=O)(=O)c2ccc(NC(=O)NCc3cccnc3)cc2)c1 [N-(2-methylpropyl)-3-[(4-{[(pyridin-3-ylmethyl)carbamoyl]amino[benzene)sulfonyl]benzamide] | 100 to 1000 nM | 9.7 nM | –
9 | CC(C)NC(=O)CN1CCN(S(=O)(=O)c2ccc(NC(=O)NCc3cccnc3)cc2)CC1 [N-(propan-2-yl)-2-{4-[(4-{[(pyridin-3-ylmethyl)carbamoyl]amino}benzene)sulfonyl]piperazin-1-yl}acetamide] | – | 3 nM | 37 nM
10 | CC(C)NC(=O)c1cccc(S(=O)(=O)c2ccc(NC(=O)NCc3cccnc3)cc2)c1 [N-(propan-2-yl)-3-[(4-{[(pyridin-3-ylmethyl)carbamoyl]amino[benzene)sulfonyl]benzamide] | 100 to 1000 nM | 10 nM | –
11 | O=C(NCCc1cccnc1)c1ccc(S(=O)(=O)c2cccc(OC(F)(F)F)c2)cc1 [N-[2-(pyridin-3-yl)ethyl]-4-{[3-(trifluoromethoxy)benzene]sulfonyl}benzamide] | – | 9370 nM | 374 nM
12 | O=C(NCCc1cccnc1)c1ccc(S(=O)(=O)Nc2cccc(OC(F)(F)F)c2)cc1 [N-[2-(pyridin-3-yl)ethyl]-4-{[3-(trifluoromethoxy)phenyl]sulfamoyl[benzamide] | – | 20500 nM | 1550 nM
13 | O=C(Nc1nc(-c2cccnc2)cs1)c1ccc(S(=O)(=O)N2CCc3ccccc3C2)cc1 [N-[4-(pyridin-3-yl)-1,3-thiazol-2-yl]-4-(1,2,3,4-tetrahydroisoquinoline-2-sulfonyl)benzamide] | – | 11100 nM | 2620 nM
14 | O=C(NCc1cccnc1)Nc1ccc(S(=O)(=O)c2cccc(C(=O)NC3CCCC3)c2)cc1 [N-cyclopentyl-3-[(4-{[(pyridin-3-ylmethyl)carbamoyl]amino[benzene)sulfonyl]benzamide] | 100 to 1000 nM | 9.6 nM | –
15 | O=C(NCc1cccnc1)Nc1ccc(S(=O)(=O)c2cccc(C(=O)NC3CC3)c2)cc1 [N-cyclopropyl-3-[(4-{[(pyridin-3-ylmethyl)carbamoyl]amino[benzene)sulfonyl]benzamide] | 100 to 1000 nM | 6.4 nM | –
16 | CCNC(=O)c1cccc(S(=O)(=O)c2ccc(NC(=O)NCc3cccnc3)cc2)c1 [N-ethyl-3-[(4-{[(pyridin-3-ylmethyl)carbamoyl]amino[benzene)sulfonyl]benzamide] | – | 6.7 nM | 100 to 1000 nM
17 | CCNC(=O)c1ccc(S(=O)(=O)c2ccc(NC(=O)NCc3cccnc3)cc2)cc1 [N-ethyl-4-[(4-{[(pyridin-3-ylmethyl)carbamoyl]amino[benzene)sulfonyl]benzamide] | – | 1.3 nM | 40.2 nM
18 | CCN(C(C)=O)[C@H]1CCN(S(=O)(=O)c2ccc(NC(=O)NCc3cccnc3)cc2)C1 [N-ethyl-N-[(3S)-1-[(4-{[(pyridin-3-ylmethyl)carbamoyl]amino}benzene)sulfonyl]pyrrolidin-3-yl]acetamide] | – | 6 nM | 79 nM
19 | CNC(=O)c1ccccc1NS(=O)(=O)c1ccc(NC(=O)NCc2cccnc2)cc1 [N-methyl-2-[(4-{[(pyridin-3-ylmethyl)carbamoyl]amino}benzene)sulfonamido]benzamide] | – | 1 nM | 11 nM
20 | CNC(=O)c1ccc(S(=O)(=O)c2ccc(NC(=O)NCc3cccnc3)cc2)cn1 [N-methyl-5-[(4-{[(pyridin-3-ylmethyl)carbamoyl]amino}benzene)sulfonyl]pyridine-2-carboxamide] | – | 3.8 nM | 83.8 nM
21 | CN(C(=O)CN1CCN(S(=O)(=O)c2ccc(NC(=O)NCc3cccnc3)cc2)CC1)c1ccccc1 [N-methyl-N-phenyl-2-{4-[(4-{[(pyridin-3-ylmethyl)carbamoyl]amino}benzene)sulfonyl]piperazin-1-yl}acetamide] | – | 8 nM | 30 nM
22 | CC(=O)Nc1cccc(S(=O)(=O)c2ccc(NC(=O)NCc3cccnc3)cc2)c1 [N-{3-[(4-{[(pyridin-3-ylmethyl)carbamoyl]amino}benzene)sulfonyl]phenyl}acetamide] | – | 1.5 nM | 39.5 nM
23 | COc1cccc(S(=O)(=O)c2ccc(C(=O)NCc3ccc4nccn4c3)cc2)c1 [N-{imidazo[1,2-a]pyridin-6-ylmethyl}-4-[(3-methoxybenzene)sulfonyl]benzamide] | – | 19.2 nM | 3.54 nM
24 | O=C(NCc1ccc2nccn2c1)c1ccc(S(=O)(=O)N2CC3CCC(C2)O3)cc1 [N-{imidazo[1,2-a]pyridin-6-ylmethyl}-4-{8-oxa-3-azabicyclo[3.2.1]octane-3-sulfonyl}benzamide] | – | 109 nM | 27.1 nM
25 | O=C(NCc1ccc2nccn2c1)c1ccc(S(=O)(=O)c2cccc(OC(F)(F)F)c2)cc1 [N-{imidazo[1,2-a]pyridin-6-ylmethyl}-4-{[3-(trifluoromethoxy)benzene]sulfonyl}benzamide] | – | 139 nM | 1.8 nM
26 | O=C(NCc1ccc2nccn2c1)c1ccc(S(=O)(=O)Nc2cccc(OC(F)(F)F)c2)cc1 [N-{imidazo[1,2-a]pyridin-6-ylmethyl}-4-{[3-(trifluoromethoxy)phenyl]sulfamoyl}benzamide] | – | 467 nM | 8.58 nM
27 | O=C(NCc1ccc2nccn2c1)c1ccc(S(=O)(=O)c2cccc(C(F)(F)F)c2)cc1 [N-{imidazo[1,2-a]pyridin-6-ylmethyl}-4-{[3-(trifluoromethyl)benzene]sulfonyl}benzamide] | – | 7.03 nM | 4.33 nM
